Assay: molar heat capacity at constant pressure; xn = mol fraction of the nth substance listed
Details: 101 kPa, Crystal, relaxation calorimetry - PPMS by Quantum Design

[Cl-].[K+] [potassium chloride] + [Cl-].[Na+]
Details | molar heat capacity at constant pressure [J/K/mol]
5.041 K, x2 = 0.9 | 0.0176
5.086 K, x2 = 0.2 | 0.0361
5.095 K, x2 = 0.1 | 0.0387
5.409 K, x2 = 0.9 | 0.0219
5.454 K, x2 = 0.2 | 0.0452
5.458 K, x2 = 0.1 | 0.0485
5.793 K, x2 = 0.9 | 0.027
5.856 K, x2 = 0.2 | 0.0564
5.879 K, x2 = 0.1 | 0.0601
6.208 K, x2 = 0.9 | 0.0335
6.274 K, x2 = 0.2 | 0.07
6.294 K, x2 = 0.1 | 0.0738
6.664 K, x2 = 0.9 | 0.0417
6.728 K, x2 = 0.2 | 0.0878
6.752 K, x2 = 0.1 | 0.0936
7.14 K, x2 = 0.9 | 0.0518
7.176 K, x2 = 0.2 | 0.1084
7.188 K, x2 = 0.1 | 0.1141
7.653 K, x2 = 0.9 | 0.0641
7.691 K, x2 = 0.2 | 0.1356
7.702 K, x2 = 0.1 | 0.1425
8.202 K, x2 = 0.9 | 0.0801
8.238 K, x2 = 0.2 | 0.1702
8.252 K, x2 = 0.1 | 0.1787
8.791 K, x2 = 0.9 | 0.1001
8.829 K, x2 = 0.2 | 0.215
8.84 K, x2 = 0.1 | 0.2244
9.422 K, x2 = 0.9 | 0.1252
9.461 K, x2 = 0.2 | 0.2712
9.475 K, x2 = 0.1 | 0.2828
10.1 K, x2 = 0.9 | 0.157
10.14 K, x2 = 0.2 | 0.3435
10.15 K, x2 = 0.1 | 0.357
10.83 K, x2 = 0.9 | 0.198
10.87 K, x2 = 0.2 | 0.4354
10.89 K, x2 = 0.1 | 0.4512
11.61 K, x2 = 0.9 | 0.2499
11.65 K, x2 = 0.2 | 0.5511
11.67 K, x2 = 0.1 | 0.5685
12.45 K, x2 = 0.9 | 0.3169
12.48 K, x2 = 0.2 | 0.6946
12.5 K, x2 = 0.1 | 0.7153
13.34 K, x2 = 0.9 | 0.4021
13.38 K, x2 = 0.2 | 0.8732
13.4 K, x2 = 0.1 | 0.8969
14.23 K, x2 = 0.9 | 0.51
14.34 K, x2 = 0.2 | 1.092
14.36 K, x2 = 0.1 | 1.12
15.33 K, x2 = 0.9 | 0.6479
15.37 K, x2 = 0.2 | 1.362
15.39 K, x2 = 0.1 | 1.395
16.43 K, x2 = 0.9 | 0.8219
16.47 K, x2 = 0.2 | 1.691
16.49 K, x2 = 0.1 | 1.726
17.61 K, x2 = 0.9 | 1.04
17.65 K, x2 = 0.2 | 2.087
17.67 K, x2 = 0.1 | 2.125
18.87 K, x2 = 0.9 | 1.31
18.91 K, x2 = 0.2 | 2.55
18.94 K, x2 = 0.1 | 2.599
20.24 K, x2 = 0.9 | 1.649
20.26 K, x2 = 0.2 | 3.105
20.29 K, x2 = 0.1 | 3.156
21.7 K, x2 = 0.9 | 2.061
21.71 K, x2 = 0.2 | 3.756
21.74 K, x2 = 0.1 | 3.81
23.25 K, x2 = 0.9 | 2.563
23.26 K, x2 = 0.2 | 4.514
23.29 K, x2 = 0.1 | 4.578
24.92 K, x2 = 0.9 | 3.165
24.93 K, x2 = 0.2 | 5.396
24.96 K, x2 = 0.1 | 5.463
26.71 K, x2 = 0.9 | 3.859
26.72 K, x2 = 0.2 | 6.429
26.74 K, x2 = 0.1 | 6.508
28.63 K, x2 = 0.2 | 7.596
28.64 K, x2 = 0.9 | 4.716
28.66 K, x2 = 0.1 | 7.674
30.69 K, x2 = 0.2 | 8.768
30.7 K, x2 = 0.9 | 5.671
30.71 K, x2 = 0.1 | 8.824
32.89 K, x2 = 0.2 | 10.16
32.9 K, x2 = 0.9 | 6.785
32.91 K, x2 = 0.1 | 10.29
35.25 K, x2 = 0.2 | 11.67
35.27 K, x2 = 0.9 | 8.039
35.28 K, x2 = 0.1 | 11.82
37.78 K, x2 = 0.2 | 13.3
37.81 K, x2 = 0.1 | 13.48
37.81 K, x2 = 0.9 | 9.437
